Reference: article PMC6445542 (Marmara pharmaceutical journal, 2013)

molecular target: HCV NS5B RNA dependent RNA polymerase (NS5BCΔ21) (Hepatitis C virus genotype 1b, UniProt P26663); test: HCV NS5B RdRp primer dependent elongation; assay type: biochemical; conditions: not given

Row | Compound | IC50 [µM]
1 | CCCCNC(=S)NNC(=O)CC1(CC)OCCc2c1[nH]c1c(CC)cccc21 (centres unmarked) [Compound 3d, 1-[2-(1,8-Diethyl-1,3,4,9-tetrahydropyrano[3,4-b]indole-1-yl)acetyl]-4-butyl thiosemicarbazide] | 29.2 ± 1.4

same assay, conditions: read-out: % Inhibition (100 μM) of HCV NS5B RdRp activity

Row | Compound | inhibition at 100 µM [%]
2 | CCc1cccc2c3c([nH]c12)C(CC)(CC(=O)O)OCC3 (racemic) [Etodolac, (R,S) 2-[1,8-diethyl-1,3,4-tetrahydropyrano (3,4-b)indole-1-yl]acetic acid, reference compound] | ~10
3 | CCNC(=S)NNC(=O)CC1(CC)OCCc2c1[nH]c1c(CC)cccc21 (centres unmarked) [Compound 3b, 1-[2-(1,8-Diethyl-1,3,4,9-tetrahydropyrano[3,4-b]indole-1-yl)acetyl]-4-ethyl thiosemicarbazide] | 49.9 ± 0.3
4 | CCCNC(=S)NNC(=O)CC1(CC)OCCc2c1[nH]c1c(CC)cccc21 (centres unmarked) [Compound 3c, 1-[2-(1,8-Diethyl-1,3,4,9-tetrahydropyrano[3,4-b]indole-1-yl)acetyl]-4-propyl thiosemicarbazide] | 34.6 ± 1.1
5 | CCCCNC(=S)NNC(=O)CC1(CC)OCCc2c1[nH]c1c(CC)cccc21 (centres unmarked) [Compound 3d, 1-[2-(1,8-Diethyl-1,3,4,9-tetrahydropyrano[3,4-b]indole-1-yl)acetyl]-4-butyl thiosemicarbazide] | 68.7 ± 0.9
6 | CCc1cccc2c3c([nH]c12)C(CC)(CC(=O)NNC(=S)NCc1ccccc1)OCC3 (centres unmarked) [Compound 3f, 1-[2-(1,8-Diethyl-1,3,4,9-tetrahydropyrano[3,4-b]indole-1-yl)acetyl]-4-benzyl thiosemicarbazide] | 23.4 ± 1.8
7 | CCc1cccc2c3c([nH]c12)C(CC)(CC(=O)NNC(=S)Nc1ccccc1)OCC3 (centres unmarked) [Compound 3g, 1-[2-(1,8-Diethyl-1,3,4,9-tetrahydropyrano[3,4-b]indole-1-yl)acetyl]-4-phenyl thiosemicarbazide] | 38.9 ± 0.9
8 | CCc1cccc2c3c([nH]c12)C(CC)(CC(=O)NNC(=S)NC1CCCCC1)OCC3 (centres unmarked) [Compound 3h, 1-[2-(1,8-Diethyl-1,3,4,9-tetrahydropyrano[3,4-b]indole-1-yl)acetyl]-4-cyclohexyl thiosemicarbazide] | 47.4 ± 0.9
